From ChEMBL document CHEMBL5303573, “Mapping human microbiome drug metabolism by gut bacteria and their genes” (Nature, 2019)

Experiments:
[1] = The drug is tested on Clostridium sp. strain: fecal isolate for biotransformation. The drug concentrations were measured before and after a 12-h incubation by liquid-chromatography-coupled mass spectrometry (LC–MS); details: 2 µM
[2] = bifidobacterium adolescentis, 12 h, 2 µM
Description: The drug is tested on Bifidobacterium adolescentis strain: ATCC 15703 for biotransformation. The drug concentrations were measured before and after a 12-h incubation by liquid-chromatography-coupled mass spectrometry (LC–MS)

[3] = bacteroides thetaiotaomicron, 12 h, 2 µM
Description: The drug is tested on Bacteroides thetaiotaomicron strain: 7330 for biotransformation. The drug concentrations were measured before and after a 12-h incubation by liquid-chromatography-coupled mass spectrometry (LC–MS)

[4] = bacteroides fragilis, 12 h, 2 µM
Description: The drug is tested on Bacteroides fragilis strain: 3397 (T10) for biotransformation. The drug concentrations were measured before and after a 12-h incubation by liquid-chromatography-coupled mass spectrometry (LC–MS)

[5] = The drug is tested on Alistipes indistinctus strain: DSM22520 for biotransformation. The drug concentrations were measured before and after a 12-h incubation by liquid-chromatography-coupled mass spectrometry (LC–MS); details: 2 µM
[6] = bacteroides intestinalis, 12 h, 2 µM
Description: The drug is tested on Bacteroides intestinalis strain: DSM17393 for biotransformation. The drug concentrations were measured before and after a 12-h incubation by liquid-chromatography-coupled mass spectrometry (LC–MS)

[7] = parabacteroides distasonis, 12 h, 2 µM
Description: The drug is tested on Parabacteroides distasonis strain: ATCC8503 for biotransformation. The drug concentrations were measured before and after a 12-h incubation by liquid-chromatography-coupled mass spectrometry (LC–MS)

[8] = The drug is tested on Ruminococcus torques strain: ATCC27756 for biotransformation. The drug concentrations were measured before and after a 12-h incubation by liquid-chromatography-coupled mass spectrometry (LC–MS); assay type: ADME; set-up: dose 2 uM, timepoint 0 vs 12 hours; details: 2 µM
[9] = roseburia intestinalis, 12 h, 2 µM
Description: The drug is tested on Roseburia intestinalis strain: L1-82 for biotransformation. The drug concentrations were measured before and after a 12-h incubation by liquid-chromatography-coupled mass spectrometry (LC–MS)

[10] = The drug is tested on Bacteroides coprophilus strain: DSM18228 for biotransformation. The drug concentrations were measured before and after a 12-h incubation by liquid-chromatography-coupled mass spectrometry (LC–MS); details: 2 µM
[11] = The drug is tested on Bifidobacterium longum subsp. Infantis strain: CCUG52486 for biotransformation. The drug concentrations were measured before and after a 12-h incubation by liquid-chromatography-coupled mass spectrometry (LC–MS); details: 2 µM
[12] = bacteroides thetaiotaomicron, 12 h, 2 µM; remark: listed apart in the source
Description: The drug is tested on Bacteroides thetaiotaomicron strain: VPI-5482 for biotransformation. The drug concentrations were measured before and after a 12-h incubation by liquid-chromatography-coupled mass spectrometry (LC–MS)

[13] = The drug is tested on Ruminococcus gnavus strain: ATCC29149 for biotransformation. The drug concentrations were measured before and after a 12-h incubation by liquid-chromatography-coupled mass spectrometry (LC–MS); details: mediterraneibacter gnavus, 2 µM
[14] = The drug is tested on Enterobacter cancerogenus strain: ATCC35316 for biotransformation. The drug concentrations were measured before and after a 12-h incubation by liquid-chromatography-coupled mass spectrometry (LC–MS); details: 2 µM
[15] = The drug is tested on Bacteroides xylanisolvens strain: DSM18836 for biotransformation. The drug concentrations were measured before and after a 12-h incubation by liquid-chromatography-coupled mass spectrometry (LC–MS); details: 2 µM
[16] = anaerostipes sp., 12 h, 2 µM
Description: The drug is tested on Anaerostipes sp. strain: fecal isolate for biotransformation. The drug concentrations were measured before and after a 12-h incubation by liquid-chromatography-coupled mass spectrometry (LC–MS)

[17] = bacteroides thetaiotaomicron, 12 h, 2 µM; remark: listed apart in the source
Description: The drug is tested on Bacteroides thetaiotaomicron strain: 3731 for biotransformation. The drug concentrations were measured before and after a 12-h incubation by liquid-chromatography-coupled mass spectrometry (LC–MS)

[18] = The drug is tested on Dorea formicigenerans strain: ATCC27755 for biotransformation. The drug concentrations were measured before and after a 12-h incubation by liquid-chromatography-coupled mass spectrometry (LC–MS); details: 2 µM
[19] = The drug is tested on Bacteroides finegoldii strain: DSM17565 for biotransformation. The drug concentrations were measured before and after a 12-h incubation by liquid-chromatography-coupled mass spectrometry (LC–MS); details: 2 µM
[20] = The drug is tested on Anaerotruncus colihominis strain: DSM17241 for biotransformation. The drug concentrations were measured before and after a 12-h incubation by liquid-chromatography-coupled mass spectrometry (LC–MS); details: 2 µM

Measured: Bacterial Biotransformation

Cc1cc2c(cc1S(N)(=O)=O)S(=O)(=O)CCC2
Compound NOT metabolized: [1] | [2] | [3] | [4] | [5] | [6] | [7] | [8] | [9] | [10] | [11] | [12] | [13] | [14] | [15] | [16] | [17]

Cc1nc(Nc2ncc(C(=O)Nc3c(C)cccc3Cl)s2)cc(N2CCN(CCO)CC2)n1.O [DASATINIB]
Compound metabolized: [1] | [2] | [4] | [6] | [7] | [19] | [16] | [20]
Compound NOT metabolized: [18] | [3] | [5] | [8] | [10] | [11] | [12] | [13] | [14] | [15] | [17]

C[C@H]1O[C@@H](O[C@H]2[C@@H](O)C[C@H](O[C@H]3[C@@H](O)C[C@H](O[C@H]4CC[C@@]5(C)[C@H](CC[C@@H]6[C@@H]5C[C@@H](O)[C@]5(C)[C@@H](C7=CC(=O)OC7)CC[C@]65O)C4)O[C@@H]3C)O[C@@H]2C)C[C@H](O)[C@@H]1O [DIGOXIN]
Compound metabolized: [1] | [3] | [4] | [10] | [12] | [15]
Compound NOT metabolized: [18] | [2] | [5] | [6] | [7] | [8] | [9] | [11] | [13] | [14] | [16] | [17] | [20]

CN1CCN(C(=O)O[C@H]2c3nccnc3C(=O)N2c2ccc(Cl)cn2)CC1 [ESZOPICLONE]
Compound NOT metabolized: [18] | [3] | [5] | [7] | [8] | [9] | [10] | [12] | [13] | [14] | [15] | [16] | [17]
Compound metabolized: [1] | [11] | [20]

OC(Cn1cncn1)(Cn1cncn1)c1ccc(F)cc1F [FLUCONAZOLE]
Compound metabolized: [1] | [18] | [3] | [4] | [8] | [12] | [13] | [15] | [20]
Compound NOT metabolized: [2] | [5] | [7] | [19] | [10] | [11] | [14] | [16]

CC(=O)O[C@]1(C(C)=O)CC[C@H]2[C@@H]3C=C(C)C4=CC(=O)CC[C@]4(C)[C@H]3CC[C@@]21C [MEGESTROL ACETATE]
Compound NOT metabolized: [18] | [8] | [19] | [9] | [10] | [11] | [13] | [14] | [16] | [20]
Compound metabolized: [1] | [2] | [3] | [4] | [5] | [6] | [7] | [15] | [17]

CC(C)[C@H]1CC[C@H](C(=O)N[C@H](Cc2ccccc2)C(=O)O)CC1 [NATEGLINIDE]
Compound metabolized: [11]
Compound NOT metabolized: [1] | [18] | [2] | [3] | [4] | [5] | [7] | [8] | [19] | [10] | [12] | [13] | [14] | [15] | [16] | [17] | [20]

CCc1nn(CCCN2CCN(c3cccc(Cl)c3)CC2)c(=O)n1CCOc1ccccc1 [NEFAZODONE]
Compound NOT metabolized: [1] | [18] | [2] | [3] | [4] | [5] | [6] | [7] | [8] | [9] | [10] | [11] | [12] | [13] | [14] | [15] | [16] | [17] | [20]

Cc1ccnc2c1NC(=O)c1cccnc1N2C1CC1 [NEVIRAPINE]
Compound metabolized: [1]
Compound NOT metabolized: [18] | [2] | [3] | [5] | [6] | [7] | [8] | [19] | [9] | [10] | [11] | [12] | [13] | [14] | [15] | [16] | [17] | [20]
